Values of other authors, collected in publication PMC8513935.

Experiments:
[1] = log P octanol/water from commercial databases, averaged (the ESI); conditions: Octanol (wet), 25 C
[2] = experimental, compiled by the authors from the literature (the ESI cites the sources)
[3] = derived by the authors as gas->solvent minus gas->water (a hypothetical dry solvent; the ESI), not a two-phase measurement

Compound: CCCCCCCC
- log K of transfer, water to solvent [1]: 5.15 log10 K
- log K of transfer, gas to solvent ([2]; 1,2-Dichloroethane, 25 C): 3.44 log10 K
- log K of transfer, gas to solvent ([2]; 2-Methylpropan-2-ol, 25 C): 3.39 log10 K
- log K of transfer, gas to solvent ([2]; 3-Methylbutan-1-ol, 25 C): 3.4 log10 K
- log K of transfer, gas to solvent ([2]; Acetonitrile, 25 C): 2.68 log10 K
- log K of transfer, gas to solvent ([2]; Benzene, 25 C): 3.92 log10 K
- log K of transfer, gas to solvent ([2]; Butan-1-ol, 25 C): 3.26 log10 K
- log K of transfer, gas to solvent ([2]; Butanone, 25 C): 3.45 log10 K
- log K of transfer, gas to solvent ([2]; Butyronitrile, 25 C): 3.21 log10 K
- log K of transfer, gas to solvent ([2]; CCl4, 25 C): 4.05 log10 K
- log K of transfer, gas to solvent ([2]; Chlorobenzene, 25 C): 3.99 log10 K
- log K of transfer, gas to solvent ([2]; Chloroform, 25 C): 3.9 log10 K
- log K of transfer, gas to solvent ([2]; Cyclohexane, 25 C): 4.07 log10 K
- log K of transfer, gas to solvent ([2]; Cyclohexanone, 25 C): 3.42 log10 K
- log K of transfer, gas to solvent ([2]; Decan-1-ol, 25 C): 3.32 log10 K
- log K of transfer, gas to solvent ([2]; Di-n-butyl ether, 25 C): 3.85 log10 K
- log K of transfer, gas to solvent ([2]; Dichloromethane, 25 C): 3.72 log10 K
- log K of transfer, gas to solvent ([2]; Diethyl Ether, 25 C): 3.92 log10 K
- log K of transfer, gas to solvent ([2]; Ethanol, 25 C): 3.17 log10 K
- log K of transfer, gas to solvent ([2]; Hexadecane, 25 C): 3.68 log10 K
- log K of transfer, gas to solvent ([2]; Hexane, 25 C): 3.97 log10 K
- log K of transfer, gas to solvent ([2]; Methanol, 25 C): 2.82 log10 K
- log K of transfer, gas to solvent ([2]; Octan-1-ol, 25 C): 3.3 log10 K
- log K of transfer, gas to solvent ([2]; Pentan-1-ol, 25 C): 3.39 log10 K
- log K of transfer, gas to solvent ([2]; Perfluoroalkane, 25 C): 2.54 log10 K
- log K of transfer, gas to solvent ([2]; Propan-1-ol, 25 C): 3.17 log10 K
- log K of transfer, gas to solvent ([2]; Propan-2-ol, 25 C): 3.17 log10 K
- log K of transfer, gas to solvent ([2]; Propanone, 25 C): 3.23 log10 K
- log K of transfer, gas to solvent ([2]; Propionitrile, 25 C): 3.05 log10 K
- log K of transfer, gas to solvent ([2]; Tetrahydrofuran, 25 C): 3.85 log10 K
- log K of transfer, gas to solvent ([2]; Toluene, 25 C): 3.94 log10 K
- log K of transfer, gas to solvent ([2]; Water, 25 C): -2.11 log10 K
- log K of transfer, water to solvent ([3]; 1,2-Dichloroethane, 25 C): 5.55 log10 K
- log K of transfer, water to solvent ([3]; 2-Methylpropan-2-ol, 25 C): 5.5 log10 K
- log K of transfer, water to solvent ([3]; 3-Methylbutan-1-ol, 25 C): 5.51 log10 K
- log K of transfer, water to solvent ([3]; Acetone, 25 C): 5.34 log10 K
- log K of transfer, water to solvent ([3]; Acetonitrile, 25 C): 4.79 log10 K
- log K of transfer, water to solvent ([3]; Benzene, 25 C): 6.03 log10 K
- log K of transfer, water to solvent ([3]; Butan-1-ol, 25 C): 5.37 log10 K
- log K of transfer, water to solvent ([3]; Butanone, 25 C): 5.56 log10 K
- log K of transfer, water to solvent ([3]; Butyronitrile, 25 C): 5.32 log10 K
- log K of transfer, water to solvent ([3]; CCl4, 25 C): 6.16 log10 K
- log K of transfer, water to solvent ([3]; Chlorobenzene, 25 C): 6.1 log10 K
- log K of transfer, water to solvent ([3]; Chloroform, 25 C): 6.01 log10 K
- log K of transfer, water to solvent ([3]; Cyclohexane, 25 C): 6.18 log10 K
- log K of transfer, water to solvent ([3]; Cyclohexanone, 25 C): 5.53 log10 K
- log K of transfer, water to solvent ([3]; Decan-1-ol, 25 C): 5.43 log10 K
- log K of transfer, water to solvent ([3]; Di-n-butyl ether, 25 C): 5.96 log10 K
- log K of transfer, water to solvent ([3]; Dichloromethane, 25 C): 5.83 log10 K
- log K of transfer, water to solvent ([3]; Diethyl Ether, 25 C): 6.03 log10 K
- log K of transfer, water to solvent ([3]; Ethanol, 25 C): 5.28 log10 K
- log K of transfer, water to solvent ([3]; Hexadecane, 25 C): 5.78 log10 K
- log K of transfer, water to solvent ([3]; Hexane, 25 C): 6.08 log10 K
- log K of transfer, water to solvent ([3]; Methanol, 25 C): 4.93 log10 K
- log K of transfer, water to solvent ([3]; Octan-1-ol(dry), 25 C): 5.41 log10 K
- log K of transfer, water to solvent ([3]; Pentan-1-ol, 25 C): 5.5 log10 K
- log K of transfer, water to solvent ([3]; Perfluoroalkane, 25 C): 4.65 log10 K
- log K of transfer, water to solvent ([3]; Propan-1-ol, 25 C): 5.28 log10 K
- log K of transfer, water to solvent ([3]; Propan-2-ol, 25 C): 5.28 log10 K
- log K of transfer, water to solvent ([3]; Propionitrile, 25 C): 5.16 log10 K
- log K of transfer, water to solvent ([3]; Tetrahydrofuran, 25 C): 5.96 log10 K
- log K of transfer, water to solvent ([3]; Toluene, 25 C): 6.05 log10 K

Compound: O=C1CCCCC1
- log K of transfer, water to solvent [1]: 0.81 log10 K
- log K of transfer, gas to solvent ([2]; 1,2-Dichloroethane, 25 C): 4.97 log10 K
- log K of transfer, gas to solvent ([2]; CCl4, 25 C): 4.57 log10 K
- log K of transfer, gas to solvent ([2]; Cyclohexanone, 25 C): 4.65 log10 K
- log K of transfer, gas to solvent ([2]; Hexadecane, 25 C): 3.79 log10 K
- log K of transfer, gas to solvent ([2]; Hexane, 25 C): 3.65 log10 K
- log K of transfer, gas to solvent ([2]; Water, 25 C): 3.6 log10 K
- log K of transfer, water to solvent ([3]; 1,2-Dichloroethane, 25 C): 1.37 log10 K
- log K of transfer, water to solvent ([3]; CCl4, 25 C): 0.97 log10 K
- log K of transfer, water to solvent ([3]; Cyclohexanone, 25 C): 1.05 log10 K
- log K of transfer, water to solvent ([3]; Hexadecane, 25 C): 0.192 log10 K
- log K of transfer, water to solvent ([3]; Hexane, 25 C): 0.05 log10 K
